# According to PMC7269146, “Jingzhaotoxin-X, a gating modifier of Kv4.2 and Kv4.3 potassium channels purified from the venom of the Chinese tarantula Chilobrachys jingzhao” (The Journal of Venomous Animals and Toxins Including …, 2020):
# “Also recorded” adds a separate entry of the source. Where a SMILES comes first, the peptide text is derived from it. Bridges are numbered along the chain shown (N, C = ends).
# Legend:
# [1] = system: LVA Cav channels; experiment: whole-cell voltage-clamp, LVA Cav currents of rat DRG neurons; format: cell-based; settings: 10 μM, n = 3
# [2] = system: Nav1.5; experiment: voltage-clamp, Nav1.5 currents; format: cell-based, human; settings: 1 μM; n = 3
# Source text: (§1) Rat cDNA genes encoding Kv4.2 (Accession: NM_031730.2) and Kv4.3 (Accession: AB003587.1) were subcloned to vector pcDNA3.1. In addition, human cDNA genes encoding Nav1.7 (Accession: DQ857292.1) and Nav1.5 (Accession: AB158469.2) were subcloned to vectors pcDNA3.1-mod and pcDNA3.1, separately. Then, Kv4.2, Kv4.3, Nav1.5 and Nav1.7 constructs were transiently transfected into the human embryonic kidney 293t (HEK293t) cells using lipofectamine 2000 (Invitrogen, USA) in accordance with manufacturer protocols. Thereafter, HEK293 cells were inoculated within Dulbecco’s modified Eagle’s medium (DMEM) containing 10% fetal bovine serum (FBS) at 5% CO2 and 37°C. The Kv4.3 channel and the Kv4.2 counterpart were then transfected in the absence of β subunit. Subsequently, cells were incubated with a DNA-lipofectamine mixture (one reporter plasmid for green fluorescence protein and channel constructs) for 4-6 h, and were washed with the fresh medium.
# An EPC-10 patch-clamp amplifier (HEKA, Germany) was employed to record the potassium currents at the configuration of whole-cell patch-clamp under an ambient temperature of 22-25°C. The resistance was 2.0-3.0 MΩ when the recording pipette contained a full volume of internal solution (supplemented with 140 mM KCl, 10 mM HEPES, 2.5 mM MgCl2, 5 mM ATP and 11 mM EGTA). […]
# [3] = molecular target: T1, Kv4.3 (Rattus norvegicus, UniProt Q62897); experiment: whole-cell patch-clamp, Kv4.3 in HEK293t cells, concentration-response and time course; format: cell-based
# T1 construct: expressed in transfected cells; host or cells: HEK293t
# T1 sequence (Q62897 1-655): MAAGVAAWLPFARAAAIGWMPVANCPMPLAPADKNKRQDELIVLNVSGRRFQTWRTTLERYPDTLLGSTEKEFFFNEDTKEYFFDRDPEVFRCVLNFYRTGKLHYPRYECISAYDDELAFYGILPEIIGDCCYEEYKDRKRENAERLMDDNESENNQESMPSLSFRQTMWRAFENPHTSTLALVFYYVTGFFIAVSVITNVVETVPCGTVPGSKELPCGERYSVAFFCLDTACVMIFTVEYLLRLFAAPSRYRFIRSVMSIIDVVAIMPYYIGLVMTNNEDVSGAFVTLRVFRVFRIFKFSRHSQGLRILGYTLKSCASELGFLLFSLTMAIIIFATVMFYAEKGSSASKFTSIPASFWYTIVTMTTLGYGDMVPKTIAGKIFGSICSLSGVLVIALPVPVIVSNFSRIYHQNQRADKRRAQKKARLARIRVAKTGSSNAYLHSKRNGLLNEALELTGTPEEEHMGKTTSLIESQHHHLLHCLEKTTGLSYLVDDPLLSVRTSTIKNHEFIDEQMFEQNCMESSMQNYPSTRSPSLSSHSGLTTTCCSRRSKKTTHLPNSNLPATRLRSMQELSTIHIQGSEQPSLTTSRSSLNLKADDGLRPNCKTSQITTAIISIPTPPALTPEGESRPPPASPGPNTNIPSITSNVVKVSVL
# Source text: as §1
# An EPC-10 patch-clamp amplifier (HEKA, Germany) was employed to record the potassium currents at the configuration of whole-cell patch-clamp under an ambient temperature of 22-25°C. The resistance was 2.0-3.0 MΩ when the recording pipette contained a full volume of internal solution (supplemented with 140 mM KCl, 10 mM HEPES, 2.5 mM MgCl2, 5 mM ATP and 11 mM EGTA). KOH was utilized to adjust the pH to 7.2, while sucrose was employed to adjust the osmolarity to 310 mOsm/L. The culture medium was replaced with an external solution containing 150 mM NaCl, 2.5 mM CaCl2, 10 mM HEPES, 2 mM MgCl2, 5 mM KCl, and 10 mM D-glucose. Similarly, sucrose and NaOH were applied to adjust the osmolarity to 330 mOsm/L and pH to 7.4. […] The series resistance was maintained at about 5 MΩ, with 65-70% compensation. Finally, the leakage currents and linear capacitance were subtracted digitally according to the P/4 protocol. […]
# On-rates were determined by fitting time course data with a single exponential decay function (2): y = Ae^-kx + C, where x is the time, A is the normalized current value before the application of toxin (usually 1.0), and C is the final normalized current value following the block by the toxin. The on-rate (τon) was determined from the inverse of the rate constant k.
# Off-rates were determined by fitting time course data with a double exponential association function (3): y = A(1-e^-kx) + B(1-e^-fx) + C, where x is the time, A or B is the normalized current value after washout of the toxin (usually 1.0 if complete washout occurred), and C is the normalized current value before the washout of the toxin. The off-rate (τoff) was determined from the inverse of the rate constant k or f.
# [4] = molecular target: T1, Kv4.3; experiment: kinetic constants of JZTX-X at Kv4.3 channel (wash-in / wash-out); format: cell-based; settings: test conc. 0.5 μM, n = 8
# Source text: as §1
# An EPC-10 patch-clamp amplifier (HEKA, Germany) was employed to record the potassium currents at the configuration of whole-cell patch-clamp under an ambient temperature of 22-25°C. The resistance was 2.0-3.0 MΩ when the recording pipette contained a full volume of internal solution (supplemented with 140 mM KCl, 10 mM HEPES, 2.5 mM MgCl2, 5 mM ATP and 11 mM EGTA). KOH was utilized to adjust the pH to 7.2, while sucrose was employed to adjust the osmolarity to 310 mOsm/L. The culture medium was replaced with an external solution containing 150 mM NaCl, 2.5 mM CaCl2, 10 mM HEPES, 2 mM MgCl2, 5 mM KCl, and 10 mM D-glucose. Similarly, sucrose and NaOH were applied to adjust the osmolarity to 330 mOsm/L and pH to 7.4. […] The series resistance was maintained at about 5 MΩ, with 65-70% compensation. Finally, the leakage currents and linear capacitance were subtracted digitally according to the P/4 protocol.
# As for kinetic calculations, curves as a function of peak currents vs. time were plotted from the toxin wash-out or wash-in moments. The software Sigmaplot 9.0 (Sigma, USA) was utilized to fit data to the first-order exponential equation. […]
compound,measurement,setting,value
"CC(C)C[C@@H]1NC(=O)[C@H](CCCCN)NC(=O)[C@H](Cc2ccc(O)cc2)NC(=O)[C@@H]2CSSC[C@@H]3NC(=O)[C@H](Cc4ccc(O)cc4)NC(=O)[C@H](Cc4ccccc4)NC(=O)CNC(=O)[C@H](C)NC(=O)[C@H](CSSC[C@H](NC(=O)[C@@H](N)CC(C)C)C(=O)N[C@@H](CO)C(=O)N[C@@H](CCCNC(=N)N)C(=O)N[C@@H](CCC(=O)O)C(=O)NCC(=O)N[C@@H](CCC(=O)O)C(=O)N[C@@H](Cc4ccccc4)C(=O)N2)NC(=O)[C@H](CSSC[C@@H](C(=O)N[C@@H](Cc2ccc(O)cc2)C(=O)N[C@@H](CCCNC(=N)N)C(=O)N[C@@H](CC(N)=O)C(=O)O)NC(=O)[C@H](Cc2c[nH]cn2)NC(=O)[C@H](CC(C)C)NC(=O)[C@H](C(C)C)NC(=O)[C@H](Cc2ccccc2)NC(=O)[C@H](C)NC(=O)[C@H](CCCCN)NC3=O)NC(=O)[C@H](CCCCN)NC(=O)[C@H](CCCNC(=N)N)NC1=O [JZTX-X, Jingzhaotoxin-X] (H-LCSREGEFCYKLRKCCAGFYCKAFVLHCYRN-OH; disulfide 2-16, 9-21, 15-28; N-terminus assumed)",inhibition of LVA Cav current,[1],less than 5%
same,effect on Nav1.5 channel,[2],negligible effect; also recorded: did not affect the currents
same,inhibition of Kv4.3 at resting potential without pulses,"[3]; -80 mV, no pulse during first ~100 s of treatment with 200 nM or 500 nM (order Kv4.2, Kv4.3), same as with pulses at 5 s intervals, n = 5",approximately 95%
same,IC50,"[3]; HEK293t cells, 1 nM-10 μM, 300-ms step to +20 mV from -80 mV, 22-25°C, pH 7.4, Hill equation fit, n = 8, read-out: IC50 for Kv4.3 channels",210 nM
same,"Hill Coefficient, Kv4.3","[3]; HEK293t cells, +20 mV from -80 mV, n = 8",1.17
same,reversal of Kv4.3 inhibition after rinsing,"[3]; in 3 min following rinsing, high JZTX-X dose, HEK293t cells, n = 6",> 95%
same,"kmod, Kv4.3 channel",[4]; inverse of τ of toxin wash-in,0.073 ± 0.006 s⁻¹
same,koff,[4]; inverse of τ of toxin wash-out,0.005 ± 0.0004 s⁻¹
same,Ki,[4]; method text: Kd = koff / kon,735 ± 50 nM
